System: SEM cells
Test: cell viability relative to DMSO control; higher = less cytotoxic
Details: 48 h
Outline: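 Library compounds in DMSO were pin-dosed into 1536-well plates (5 μl) holding NOMO1 or SEM (500 cells/well) or P12-Ichikawa (1000 cells/well) leukemia cells, across an 11-point threefold series of 47 μM to 0.79 nM. Each cell line had been adapted for at least four passages in each medium. CellTiter-Glo One luminescence was read after 48 h at 37°C. Viability is the per-plate percentage relative to DMSO wells, with cell-free wells as background.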

[1] = HPLM + 10% dialyzed FBS, 0.000781 µM
[2] = HPLM + 10% dialyzed FBS, 0.00234 µM
[3] = HPLM + 10% dialyzed FBS, 0.00702 µM
[4] = HPLM + 10% dialyzed FBS, 0.0211 µM
[5] = HPLM + 10% dialyzed FBS, 0.0632 µM
[6] = HPLM + 10% dialyzed FBS, 0.19 µM
[7] = HPLM + 10% dialyzed FBS, 0.569 µM
[8] = HPLM + 10% dialyzed FBS, 1.71 µM
[9] = HPLM + 10% dialyzed FBS, 5.12 µM
[10] = HPLM + 10% dialyzed FBS, 15.4 µM
[11] = HPLM + 10% dialyzed FBS, 46.1 µM
[12] = RPMI 5 mM glucose + 10% FBS, 0.000781 µM
[13] = RPMI 5 mM glucose + 10% FBS, 0.00234 µM
[14] = RPMI 5 mM glucose + 10% FBS, 0.00702 µM
[15] = RPMI 5 mM glucose + 10% FBS, 0.0211 µM
[16] = RPMI 5 mM glucose + 10% FBS, 0.0632 µM
[17] = RPMI 5 mM glucose + 10% FBS, 0.19 µM
[18] = RPMI 5 mM glucose + 10% FBS, 0.569 µM
[19] = RPMI 5 mM glucose + 10% FBS, 1.71 µM
[20] = RPMI 5 mM glucose + 10% FBS, 5.12 µM
[21] = RPMI 5 mM glucose + 10% FBS, 15.4 µM
[22] = RPMI 5 mM glucose + 10% FBS, 46.1 µM
[23] = RPMI 5 mM glucose + 10% dialyzed FBS, 0.000781 µM
[24] = RPMI 5 mM glucose + 10% dialyzed FBS, 0.00234 µM
[25] = RPMI 5 mM glucose + 10% dialyzed FBS, 0.00702 µM
[26] = RPMI 5 mM glucose + 10% dialyzed FBS, 0.0211 µM
[27] = RPMI 5 mM glucose + 10% dialyzed FBS, 0.0632 µM
[28] = RPMI 5 mM glucose + 10% dialyzed FBS, 0.19 µM
[29] = RPMI 5 mM glucose + 10% dialyzed FBS, 0.569 µM
[30] = RPMI 5 mM glucose + 10% dialyzed FBS, 1.71 µM
[31] = RPMI 5 mM glucose + 10% dialyzed FBS, 5.12 µM
[32] = RPMI 5 mM glucose + 10% dialyzed FBS, 15.4 µM
[33] = RPMI 5 mM glucose + 10% dialyzed FBS, 46.1 µM

| SMILES | cell viability [1] [%] | cell viability [2] [%] | cell viability [3] [%] | cell viability [4] [%] | cell viability [5] [%] | cell viability [6] [%] | cell viability [7] [%] | cell viability [8] [%] | cell viability [9] [%] | cell viability [10] [%] | cell viability [11] [%] | cell viability [12] [%] | cell viability [13] [%] | cell viability [14] [%] | cell viability [15] [%] | cell viability [16] [%] | cell viability [17] [%] | cell viability [18] [%] | cell viability [19] [%] | cell viability [20] [%] | cell viability [21] [%] | cell viability [22] [%] | cell viability [23] [%] | cell viability [24] [%] | cell viability [25] [%] | cell viability [26] [%] | cell viability [27] [%] | cell viability [28] [%] | cell viability [29] [%] | cell viability [30] [%] | cell viability [31] [%] | cell viability [32] [%] | cell viability [33] [%] |
| --- | --- | --- | --- | --- | --- | --- | --- | --- | --- | --- | --- | --- | --- | --- | --- | --- | --- | --- | --- | --- | --- | --- | --- | --- | --- | --- | --- | --- | --- | --- | --- | --- | --- |
| OCCN(CCO)c1nc(N2CCCCC2)c2nc(N(CCO)CCO)nc(N3CCCCC3)c2n1 | 108 | 111 | 109 | 109 | 118 | 119 | 117 | 114 | 99.3 | 89.9 | 82.4 | 120 | 111 | 118 | 120 | 127 | 124 | 111 | 104 | 111 | 103 | 72.4 | 128 | 120 | 113 | 104 | 121 | 102 | 143 | 131 | 116 | 106 | 67.8 |
| NNc1nncc2ccccc12 | 76.2 | 105 | 109 | 103 | 117 | 122 | 112 | 136 | 126 | 117 | 132 | 87.8 | 114 | 128 | 128 | 152 | 125 | 156 | 162 | 131 | 134 | 115 | 89.6 | 124 | 125 | 143 | 152 | 135 | 147 | 163 | 153 | 156 | 158 |
| CC(C)Cn1cnc2c(N)nc3ccccc3c21 | 98.8 | 107 | 106 | 105 | 110 | 110 | 104 | 93.5 | 102 | 91.8 | 77.1 | 104 | 124 | 103 | 115 | 104 | 111 | 104 | 94.1 | 111 | 105 | 72.1 | 105 | 118 | 117 | 116 | 108 | 105 | 120 | 113 | 93.8 | 90.6 | 92 |
| O=C(NCc1ccccc1)c1csc(Nc2ccncn2)n1 | 84 | 77.5 | 97 | 106 | 108 | 75.7 | 74.4 | 50.4 | 17.2 | 4.02 | 1.49 | 97.4 | 82.9 | 99.5 | 96.3 | 108 | 55.3 | 67.8 | 29.2 | 9.72 | 2.63 | 1.31 | 89.6 | 69.1 | 94.8 | 103 | 108 | 81.5 | 85.9 | 43.7 | 17.4 | 2.76 | 1.35 |
| NC(CO)C(=O)NNCc1ccc(O)c(O)c1O (centres undefined) | 93.3 | 116 | 105 | 89.9 | 106 | 99.8 | 102 | 103 | 104 | 89.4 | 84.2 | 99.8 | 104 | 101 | 84.7 | 101 | 105 | 98.3 | 96.1 | 72.9 | 99 | 12.6 | 103 | 105 | 104 | 89.2 | 95 | 88.5 | 100 | 91.4 | 90.5 | 87.8 | 18 |
| COC(=O)C/1=C(C)/N/C(=C(\C1C2=CC(=CC=C2)[N+]([O-])=O)C(=O)OCCCN3CCC(CC3)(C4=CC=CC=C4)C5=CC=CC=C5)C (centres undefined) | 113 | 94.1 | 114 | 42 | 95.5 | 104 | 100 | 109 | 90.3 | 94.8 | 98.6 | 93.4 | 97.7 | 98.2 | 39.7 | 90.3 | 97.8 | 98 | 95.7 | 104 | 106 | 91.1 | 100 | 92.3 | 100 | 43.2 | 97.2 | 95.6 | 101 | 112 | 96.5 | 100 | 102 |
| OC[C@H]1OC(OC2=CC3=C(C(=C2)O)C(=O)\C(=C/O3)C4=CC=C(O)C=C4)[C@H](O)[C@@H](O)[C@@H]1O (some centres undefined) | 93.7 | 92.9 | 92 | 98.1 | 93 | 79.9 | 69.7 | 93.4 | 81.6 | 78.6 | 65.3 | 97.9 | 86.8 | 111 | 102 | 117 | 89.6 | 89 | 98 | 86.4 | 92.4 | 94.1 | 86.3 | 89.1 | 114 | 94.7 | 106 | 88.3 | 89.8 | 96.6 | 90.3 | 90.1 | 95.8 |
| CC(C)n1cnc2c(NCCc3ccc(O)cc3)nc(-c3csc4ccccc34)nc21 | 105 | 91 | 99.5 | 114 | 114 | 139 | 116 | 122 | 122 | 39.8 | 10.4 | 111 | 103 | 102 | 108 | 101 | 125 | 129 | 99.2 | 77.2 | 8.37 | 8.04 | 106 | 97.7 | 103 | 110 | 114 | 127 | 132 | 122 | 57.7 | 11.4 | 7.89 |
